Measured values: the supplement of paper PMC11061612

Key:
[1] = system: H-EMC-SS (Chondrosarcoma); test: combination Emax (second highest fraction inhibited in the dose matrix, 72 h); higher = more inhibition; extreme values may be limits of the assay
In short: (§1)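 Cell lines in DMEM/F12 or RPMI with 10% FBS were plated in 1536-well plates, held 24 hours at 37°C, 5% CO2, then given two-drug dose matrices for 72 hours (DMSO typically 0.2%). Viability was read by CellTiter-Glo 2.0 luminescence and scaled as inhibition from 0 (vehicle wells) to 1 (blank wells). Combination Emax is the second-highest inhibition in the matrix; Bliss excess is observed combination effect minus expected EA + EB − EA·EB, EA and EB being single-agent effects.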

[2] = system: OCUM-1 (Gastric Carcinoma); test: as above
In short: as §1

GI-1 (Glioblastoma) = test: as above
In short: as §1

[3] = system: HuP-T3 (Pancreatic Carcinoma); test: as above
In short: as §1

[4] = system: NCI-H2347 (Lung Adenocarcinoma); test: as above
In short: as §1

[5] = system: NCI-H513 (Other Solid Carcinomas); test: as above
In short: as §1

[6] = system: OCUB-M (Breast Carcinoma); test: as above
In short: as §1

[7] = system: EBC-1 (Squamous Cell Lung Carcinoma); test: Bliss excess, mean over the matrix (fraction); higher = more synergy
In short: as §1

NH-12 (Neuroblastoma) = test: as above
In short: as §1

[8] = system: PF-382 (T-Lymphoblastic Leukemia); test: as above
In short: as §1

[9] = system: PFSK-1 (Other Solid Carcinomas); test: as above
In short: as §1

[10] = system: H-EMC-SS (Chondrosarcoma); test: as above
In short: as §1

[11] = system: SCC-3 (B-Cell Non-Hodgkin's Lymphoma); test: as above
In short: as §1

[12] = system: OVISE (Ovarian Carcinoma); test: as above
In short: as §1

[13] = system: KYSE-50 (Esophageal Squamous Cell Carcinoma); test: as above
In short: as §1

[14] = system: EMC-BAC-2 (Non-Small Cell Lung Carcinoma); test: as above
In short: as §1

BT-20 (Breast Carcinoma) = test: as above
In short: as §1

[15] = system: ASH-3 (Thyroid Gland Carcinoma); test: as above
In short: as §1

[16] = system: LC4-1 (B-Lymphoblastic Leukemia); test: as above
In short: as §1

[17] = system: LOU-NH91 (Squamous Cell Lung Carcinoma); test: as above
In short: as §1
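Wherever Bliss excess, mean over the matrix is given: after 72 h of two-drug dosing.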

In the case of `Cc1c2c(nn1C)CSCc1cc(n(C)n1)CSc1cc(c3ccccc3c1)OCCCc1c(C(=O)O)n(C)c3c-2c(Cl)ccc13` [AZD5991] + CN(C)CCCOc1ccc(-c2ccc3ncc4c(c3c2)n(C2CCOCC2)c(=O)n4C)cn1 [AZD0156] (first compound max 1 µM, 7x7, partner max 1 µM), the “combination Emax” value [1] is reported as 0.431, the “combination Emax” value [2] is reported as 0.113 and the “combination Emax” value (GI-1 (Glioblastoma)) is reported as 0.774. The “combination Emax” value [3] was 0.213, the “combination Emax” value [4] was 0.239 and the “combination Emax” value [5] was 0.228. For the same compound, the “combination Emax” value [6] was 0.949, the Bliss excess [7] was 0.0581 and the Bliss excess (NH-12 (Neuroblastoma)) was -0.0511. For the same compound, the Bliss excess [8] was 0.0109, the Bliss excess [9] was 0.0228 and the Bliss excess [10] was -0.0106. It also gave a Bliss excess [11] of 0.0027, a Bliss excess [12] of -0.0007 and a Bliss excess [13] of -0.0031. For the same compound, the Bliss excess [14] was -0.0313, the Bliss excess (BT-20 (Breast Carcinoma)) was 0.0258 and the Bliss excess [15] was -0.0253. For the same compound, the Bliss excess [16] was -0.0177 and the Bliss excess [17] was 0.01.
In the case of `Cc1c2c(nn1C)CSCc1cc(n(C)n1)CSc1cc(c3ccccc3c1)OCCCc1c(C(=O)O)n(C)c3c-2c(Cl)ccc13` [AZD5991] + C=CCn1c(=O)c2cnc(Nc3ccc(N4CCN(C)CC4)cc3)nc2n1-c1cccc(C(C)(C)O)n1 [AZD1775] (first compound max 1 µM, partner max 1 µM), the “combination Emax” value [1] is reported as 0.399, the “combination Emax” value [2] is reported as 0.38 and the “combination Emax” value (GI-1 (Glioblastoma)) is reported as 0.958. For the same compound, the “combination Emax” value [3] was 0.457, the “combination Emax” value [4] was 0.357 and the “combination Emax” value [5] was 0.532. The “combination Emax” value [6] was 0.984, the Bliss excess [7] was 0.0007 and the Bliss excess (NH-12 (Neuroblastoma)) was -0.0549. For the same compound, the Bliss excess [8] was -0.0314, the Bliss excess [9] was -0.0282 and the Bliss excess [10] was 0.0071. It also gave a Bliss excess [11] of 0.0088, a Bliss excess [12] of 0.0108 and a Bliss excess [13] of -0.0042. It also gave a Bliss excess [14] of -0.0121, a Bliss excess (BT-20 (Breast Carcinoma)) of -0.02 and a Bliss excess [15] of -0.0243. For the same compound, the Bliss excess [16] was 0.0301 and the Bliss excess [17] was 0.0376.
`CN(CCO)CC[C@H](CSc1ccccc1)Nc1ccc(S(=O)(=O)NC(=O)c2ccc(N3CCC([C@@H](O)c4ccccc4-c4ccc(Cl)cc4)CC3)cc2)cc1S(=O)(=O)C(F)(F)F` [AZD4320] + Cn1cnc2c(F)c(Nc3ccc(Br)cc3Cl)c(C(=O)NOCCO)cc21 [Selumetinib] (first compound max 1 µM, 7x7, partner max 3 µM) was tested, and the “combination Emax” value [1] was 0.691, the “combination Emax” value [2] was 0.996 and the “combination Emax” value (GI-1 (Glioblastoma)) was 0.801. The “combination Emax” value [3] was 0.471, the “combination Emax” value [4] was 0.68 and the “combination Emax” value [5] was 0.398. For the same compound, the “combination Emax” value [6] was 0.797, the Bliss excess [7] was 0.0478 and the Bliss excess (NH-12 (Neuroblastoma)) was 0.0593. The Bliss excess [8] was 0.0409, the Bliss excess [9] was 0.057 and the Bliss excess [10] was -0.0378. For the same compound, the Bliss excess [11] was 0.0222, the Bliss excess [12] was 0.024 and the Bliss excess [13] was 0.0405. It also gave a Bliss excess [14] of 0.0022, a Bliss excess (BT-20 (Breast Carcinoma)) of 0.0937 and a Bliss excess [15] of -0.026. For the same compound, the Bliss excess [16] was 0.0831 and the Bliss excess [17] was 0.0027.
With `CC(=O)Nc1cccc(-n2c(=O)n(C3CC3)c(=O)c3c(Nc4ccc(I)cc4F)n(C)c(=O)c(C)c32)c1` [Trametinib] + Cc1nc(-c2cn3c(n2)-c2ccc(-c4cnn(C(C)(C)C(N)=O)c4)cc2OCC3)n(C(C)C)n1 [Taselisib] (first compound max 1 µM, 7x7, partner max 10 µM) the “combination Emax” value [1] was 0.991, the “combination Emax” value [2] was 1 and the “combination Emax” value (GI-1 (Glioblastoma)) was 0.766. The “combination Emax” value [3] was 0.741, the “combination Emax” value [4] was 0.618 and the “combination Emax” value [5] was 0.757. For the same compound, the “combination Emax” value [6] was 1, the Bliss excess [7] was 0.0674 and the Bliss excess (NH-12 (Neuroblastoma)) was 0.011. It also gave a Bliss excess [8] of 0.234, a Bliss excess [9] of -0.0681 and a Bliss excess [10] of 0.106. The Bliss excess [11] was 0.206, the Bliss excess [12] was 0.0114 and the Bliss excess [13] was 0.108. For the same compound, the Bliss excess [14] was 0.0528, the Bliss excess (BT-20 (Breast Carcinoma)) was 0.118 and the Bliss excess [15] was 0.127. The Bliss excess [16] was 0.107 and the Bliss excess [17] was 0.116.
In the case of `CC1(C)CCC(CN2CCN(c3ccc(C(=O)NS(=O)(=O)c4ccc(NCC5CCOCC5)c([N+](=O)[O-])c4)c(Oc4cnc5[nH]ccc5c4)c3)CC2)=C(c2ccc(Cl)cc2)C1` [Venetoclax] + Cn1cnc2c(F)c(Nc3ccc(Br)cc3Cl)c(C(=O)NOCCO)cc21 [Selumetinib] (first compound max 1 µM, 7x7, partner max 3 µM), the “combination Emax” value [1] is reported as 0.341, the “combination Emax” value [2] is reported as 0.918 and the “combination Emax” value (GI-1 (Glioblastoma)) is reported as 0.179. For the same compound, the “combination Emax” value [3] was 0.316, the “combination Emax” value [4] was 0.344 and the “combination Emax” value [5] was 0.228. The “combination Emax” value [6] was 0.286, the Bliss excess [7] was -0.0542 and the Bliss excess (NH-12 (Neuroblastoma)) was 0.0918. The Bliss excess [8] was -0.0038, the Bliss excess [9] was -0.0092 and the Bliss excess [10] was -0.0381. It also gave a Bliss excess [11] of 0.028, a Bliss excess [12] of -0.0678 and a Bliss excess [13] of -0.0104. The Bliss excess [14] was -0.0324, the Bliss excess (BT-20 (Breast Carcinoma)) was -0.0021 and the Bliss excess [15] was -0.0074. For the same compound, the Bliss excess [16] was 0.0678 and the Bliss excess [17] was -0.0291.
`CC(=O)c1c(C)c2cnc(Nc3ccc(N4CCNCC4)cn3)nc2n(C2CCCC2)c1=O` [Palbociclib] + CC1(C)CCC(CN2CCN(c3ccc(C(=O)NS(=O)(=O)c4ccc(NCC5CCOCC5)c([N+](=O)[O-])c4)c(Oc4cnc5[nH]ccc5c4)c3)CC2)=C(c2ccc(Cl)cc2)C1 [Venetoclax] (first compound max 10 µM, 7x7, partner max 1 µM) was tested, and the “combination Emax” value [1] was 0.284, the “combination Emax” value [2] was 0 and the “combination Emax” value (GI-1 (Glioblastoma)) was 0.03. For the same compound, the “combination Emax” value [3] was 0.187, the “combination Emax” value [4] was 0.14 and the “combination Emax” value [5] was 0.0783. The “combination Emax” value [6] was 0.0811, the Bliss excess [7] was 0.0208 and the Bliss excess (NH-12 (Neuroblastoma)) was 0.0627. The Bliss excess [8] was 0.0031, the Bliss excess [9] was -0.0425 and the Bliss excess [10] was 0.0118. It also gave a Bliss excess [11] of 0.0411, a Bliss excess [12] of -0.0422 and a Bliss excess [13] of 0.0238. For the same compound, the Bliss excess [14] was 0.0004, the Bliss excess (BT-20 (Breast Carcinoma)) was -0.0352 and the Bliss excess [15] was -0.0086. The Bliss excess [16] was -0.0396 and the Bliss excess [17] was -0.0489.
